The assay deals with T1, Glucocorticoid Receptor (GR) (Homo sapiens, UniProt P04150).
T1 construct: purchased Invitrogen P2816
T1 sequence (P04150 1-777): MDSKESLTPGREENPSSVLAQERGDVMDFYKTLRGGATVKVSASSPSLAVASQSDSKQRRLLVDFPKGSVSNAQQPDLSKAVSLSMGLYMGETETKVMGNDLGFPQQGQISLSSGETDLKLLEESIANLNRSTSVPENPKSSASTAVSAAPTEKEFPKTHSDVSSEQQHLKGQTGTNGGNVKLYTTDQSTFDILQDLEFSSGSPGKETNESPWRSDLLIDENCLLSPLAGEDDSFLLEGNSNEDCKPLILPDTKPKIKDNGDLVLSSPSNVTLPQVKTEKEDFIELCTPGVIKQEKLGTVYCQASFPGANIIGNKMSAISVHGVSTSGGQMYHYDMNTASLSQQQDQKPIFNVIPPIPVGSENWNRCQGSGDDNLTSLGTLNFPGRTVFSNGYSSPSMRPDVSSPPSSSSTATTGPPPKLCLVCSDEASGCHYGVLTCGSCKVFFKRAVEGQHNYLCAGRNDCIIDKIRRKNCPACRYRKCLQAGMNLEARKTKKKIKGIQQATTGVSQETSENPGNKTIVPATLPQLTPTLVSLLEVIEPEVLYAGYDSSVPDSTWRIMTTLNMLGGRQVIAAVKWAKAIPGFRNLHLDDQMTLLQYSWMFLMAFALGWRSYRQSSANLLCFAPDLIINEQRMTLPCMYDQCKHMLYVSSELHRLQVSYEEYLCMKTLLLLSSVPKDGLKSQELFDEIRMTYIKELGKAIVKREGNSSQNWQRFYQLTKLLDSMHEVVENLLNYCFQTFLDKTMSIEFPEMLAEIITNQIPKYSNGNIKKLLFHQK
The assay is described as follows: GR receptor competitor assay by fluorescence polarization (Invitrogen GR competitor assay kit, cat No. P2816). The conditions noted are these: 20 μM test compound solution, 10 μL per well plus 5 μL 4×GS1 and 5 μL 4×GR solution; recombinant human GR; 2 to 4 hours at room temperature; a ratio of 100% or more is indicated by 100%; read-out: GR Binding ratio (%). As to the method: A detailed explanation of this matter will be described in the section of “Pharmacological Test” in Examples described below. In order to find the usefulness of the present compound as a pharmaceutical, a glucocorticoid receptor competitor assay was carried out by a fluorescence polarization method by using a glucocorticoid receptor competitor assay kit (manufactured by Invitrogen, cat No P2816) to study the glucocorticoid receptor binding activity of the present compound.
1. Evaluation Test for Binding Activity to Glucocorticoid Receptor (Hereinafter Referred to as “GR”)
In order to evaluate a binding activity to GR, a receptor competitor assay was carried out by a fluorescence polarization method. In the assay, a GR competitor assay kit (manufactured by Invitrogen, cat No. P2816) was used, and a procedure was carried out according to the protocol attached to the kit. Hereinafter, the specific method will be described.
(Preparation of Reagents)
GR screening buffer: A buffer containing 10 mM potassium phosphate (pH 7.4), 20 mM sodium molybdate (Na2MoO4), 0.1 mM ethylene diamine tetraacetic acid (EDTA), 5 mM dithiothreitol (DTT), 0.1 mM stabilizing peptide and 2% dimethylsulfoxide was prepared.
4×GS1 solution: Fluormone™ GS1, which is a fluorescent glucocorticoid ligand, was diluted with GR screening buffer, whereby a 4 nM solution was prepared.
4×GR solution: Recombinant human GR was diluted with GR screening buffer, whereby a 16 nM solution was prepared.
(Preparation of Test Compound Solution)
After a test compound was dissolved in dimethylsulfoxide, the resulting solution was diluted with GR screening buffer, whereby a 20 μM test compound solution was prepared.
(Test Method and Measurement Method)
1) The test compound solution was added in an amount of 10 μL into each well of a 384-well plate, and then, 4×GS1 solution and 4×GR solution were added in an amount of 5 μL into each well, respectively.
2) The plate was incubated in a dark place at room temperature for 2 to 4 hours.
3) By using a multimode plate reader, Analyst™ HT (manufactured by LJL Biosystems), fluorescence polarization of each well was measured. As the blank, a well containing GR screening buffer in place of the test compound and 4×GS1 solution was used.
4) The same procedure as that in the above 1) to 3) was carried out except that GR screening buffer was used in place of the test compound solution, and the obtained result was taken as the negative control.
5) The same procedure as that in the above 1) to 3) was carried out except that 2 mM dexamethasone was used in place of the test compound solution, and the obtained result was taken as the positive control.
(Calculation Equation of GR Binding Ratio)
A GR binding ratio (%) was calculated from the following equation. GR binding ratio (%)=100×[1−(fluorescence polarization of test compound solution−fluorescence polarization of positive control solution)/(fluorescence polarization of negative control solution−fluorescence polarization of positive control solution)] (Test Results and Discussion)
(In general: Polarisation of emitted light reports the rotation of a fluorescent probe.)
As to `COc1cc(OC(=O)c2ccccc2)ccc1-c1ccc2c(c1COc1cc(F)ccc1C)C(C)=CC(C)(C)N2` [Compound 1-1, 6-(4-Benzoyloxy-2-methoxyphenyl)-5-(5-fluoro-2-methylphenoxymethyl)-2,2,4-trimethyl-1,2-dihydroquinoline], the inhibition at 10 µM was 94%. In the case of `COc1cc(OC(=O)CNC(=O)OC(C)(C)C)ccc1-c1ccc2c(c1COc1cc(F)ccc1C)C(C)=CC(C)(C)N2` [Compound 1-2, 6-(4-t-Butoxycarbonylaminoacetoxy-2-methoxyphenyl)-5-(5-fluoro-2-methylphenoxymethyl)-2,2,4-trimethyl-1,2-dihydroquinoline] it was 100%.

In the case of `COc1ccc(C(=O)Oc2ccc(-c3ccc4c(c3COc3cc(F)ccc3C)C(C)=CC(C)(C)N4)c(OC)c2)cc1` [Compound 1-6], the inhibition at 10 µM was 100%.

Take `COc1cccc(C(=O)Oc2ccc(-c3ccc4c(c3COc3cc(F)ccc3C)C(C)=CC(C)(C)N4)c(OC)c2)c1` [Compound 1-7, 5-(5-Fluoro-2-methylphenoxymethyl)-6-[2-methoxy-4-(3-methoxybenzoyloxy)phenyl]-2,2,4-trimethyl-1,2-dihydroquinoline]: the inhibition at 10 µM turned out to be 100%. For the molecule `COc1ccccc1C(=O)Oc1ccc(-c2ccc3c(c2COc2cc(F)ccc2C)C(C)=CC(C)(C)N3)c(OC)c1` [Compound 1-8, 5-(5-Fluoro-2-methylphenoxymethyl)-6-[2-methoxy-4-(2-methoxybenzoyloxy)phenyl]-2,2,4-trimethyl-1,2-dihydroquinoline], the inhibition at 10 µM was 100%.

As for `COc1cc(OC(=O)c2ccccc2Cl)ccc1-c1ccc2c(c1COc1cc(F)ccc1C)C(C)=CC(C)(C)N2` [Compound 1-11, 6-[4-(2-Chlorobenzoyloxy)-2-methoxyphenyl]-5-(5-fluoro-2-methylphenoxymethyl)-2,2,4-trimethyl-1,2-dihydroquinoline], the inhibition at 10 µM came out at 100%. On to `COc1cc(OC(=O)C2CCCCC2)ccc1-c1ccc2c(c1COc1cc(F)ccc1C)C(C)=CC(C)(C)N2` [Compound 1-12, 6-(4-Cyclohexylcarbonyloxy-2-methoxyphenyl)-5-(5-fluoro-2-methylphenoxymethyl)-2,2,4-trimethyl-1,2-dihydroquinoline], for which the inhibition at 10 µM was 100%. As for `COc1cc(OC(=O)c2cccnc2)ccc1-c1ccc2c(c1COc1cc(F)ccc1C)C(C)=CC(C)(C)N2` [Compound 1-13, 5-(5-Fluoro-2-methylphenoxymethyl)-6-[2-methoxy-4-(pyridin-3-ylcarbonyloxy)phenyl]-2,2,4-trimethyl-1,2-dihydroquinoline], the inhibition at 10 µM worked out at 100%. With `CCCC(=O)Oc1ccc(-c2ccc3c(c2COc2cc(F)ccc2C)C(C)=CC(C)(C)N3)c(OC)c1` [Compound 1-14, 6-(4-Butyryloxy-2-methoxyphenyl)-5-(5-fluoro-2-methylphenoxymethyl)-2,2,4-trimethyl-1,2-dihydroquinoline], the inhibition at 10 µM turned out to be 100%.

For the molecule `CCC(=O)Oc1ccc(-c2ccc3c(c2COc2cc(F)ccc2C)C(C)=CC(C)(C)N3)c(OC)c1` [Compound 1-16, 5-(5-Fluoro-2-methylphenoxymethyl)-6-(2-methoxy-4-propionyloxyphenyl)-2,2,4-trimethyl-1,2-dihydroquinoline], the inhibition at 10 µM turned out to be 100%. For the molecule `C=CC(=O)Oc1ccc(-c2ccc3c(c2COc2cc(F)ccc2C)C(C)=CC(C)(C)N3)c(OC)c1` [Compound 1-17, 6-(4-Acryloyloxy-2-methoxyphenyl)-5-(5-fluoro-2-methylphenoxymethyl)-2,2,4-trimethyl-1,2-dihydroquinoline], the inhibition at 10 µM is 100%. In the case of `COc1cc(OC(=O)c2ccsc2)ccc1-c1ccc2c(c1COc1cc(F)ccc1C)C(C)=CC(C)(C)N2` [Compound 1-18, 5-(5-Fluoro-2-methylphenoxymethyl)-6-[2-methoxy-4-(thiophen-3-ylcarbonyloxy)phenyl]-2,2,4-trimethyl-1,2-dihydroquinoline] it was 100%; in that of `COc1cc(OC(=O)c2ccco2)ccc1-c1ccc2c(c1COc1cc(F)ccc1C)C(C)=CC(C)(C)N2` [Compound 1-19, 5-(5-Fluoro-2-methylphenoxymethyl)-6-[4-(furan-2-ylcarbonyloxy)-2-methoxyphenyl]-2,2,4-trimethyl-1,2-dihydroquinoline], 100%; in that of `COc1cc(OC(=O)C(C)C)ccc1-c1ccc2c(c1COc1cc(F)ccc1C)C(C)=CC(C)(C)N2` [Compound 1-20, 5-(5-Fluoro-2-methylphenoxymethyl)-6-(4-isobutyryloxy-2-methoxyphenyl)-2,2,4-trimethyl-1,2-dihydroquinoline], 100%. As for `COc1cc(OC(=O)Cc2ccccc2)ccc1-c1ccc2c(c1COc1cc(F)ccc1C)C(C)=CC(C)(C)N2` [Compound 1-21, 5-(5-Fluoro-2-methylphenoxymethyl)-6-(2-methoxy-4-phenylacetoxyphenyl)-2,2,4-trimethyl-1,2-dihydroquinoline], the inhibition at 10 µM came to 100%. In the case of `CCC(=O)Oc1ccc(OC)c(-c2ccc3c(c2COc2cc(F)ccc2C)C(C)=CC(C)(C)N3)c1` [Compound 1-27, 5-(5-Fluoro-2-methylphenoxylmethyl)-6-(2-methoxy-5-propionyloxyphenyl)-2,2,4-trimethyl-1,2-dihydroquinoline], the inhibition at 10 µM amounted to 84%.

Consider `COc1cc(OC(=O)c2cccs2)ccc1-c1ccc2c(c1COc1cc(F)ccc1C)C(C)=CC(C)(C)N2` [Compound 1-31, 5-(5-Fluoro-2-methylphenoxymethyl)-6-[2-methoxy-4-(thiophen-2-ylcarbonyloxy)phenyl]-2,2,4-trimethyl-1,2-dihydroquinoline], for which the inhibition at 10 µM came to 100%. For the molecule `COc1cc(OC(=O)CCc2ccccc2)ccc1-c1ccc2c(c1COc1cc(F)ccc1C)C(C)=CC(C)(C)N2` [Compound 1-33, 5-(5-Fluoro-2-methylphenoxymethyl)-6-[2-methoxy-4-(3-phenylpropionyloxy)phenyl]-2,2,4-trimethyl-1,2-dihydroquinoline], the inhibition at 10 µM was found to be 89%. As for `COc1cc(OC(=O)c2ccoc2)ccc1-c1ccc2c(c1COc1cc(F)ccc1C)C(C)=CC(C)(C)N2` [Compound 1-34, 5-(5-Fluoro-2-methylphenoxymethyl)-6-[4-(furan-3-ylcarbonyloxy)-2-methoxyphenyl]-2,2,4-trimethyl-1,2-dihydroquinoline], the inhibition at 10 µM came out at 100%. The result for `COc1cc(OC(=O)c2ccccn2)ccc1-c1ccc2c(c1COc1cc(F)ccc1C)C(C)=CC(C)(C)N2` [Compound 1-35, 5-(5-Fluoro-2-methylphenoxymethyl)-6-[2-methoxy-4-(pyridin-2-ylcarbonyloxy)phenyl]-2,2,4-trimethyl-1,2-dihydroquinoline] reads 100%; that for `COc1cc(OC(=O)c2ccc([N+](=O)[O-])cc2)ccc1-c1ccc2c(c1COc1cc(F)ccc1C)C(C)=CC(C)(C)N2` [Compound 1-40, 5-(5-Fluoro-2-methylphenoxymethyl)-6-[2-methoxy-4-(4-nitrobenzoyloxy)phenyl]-2,2,4-trimethyl-1,2-dihydroquinoline], 100%.

The values above are taken from patent US8440660B2 (Santen Pharmaceutical Co., Ltd., priority 2006, dated 2013).
